From publication PMC10301432, “Antiplasmodial, Trypanocidal, and Genotoxicity In Vitro Assessment of New Hybrid α,α-Difluorophenylacetamide-statin Derivatives” (Pharmaceuticals, 2023)
Like-named read-outs stand apart in the source and are kept apart here.

Experiments:
CHO-K1 cells = type: cell-based, Chinese Hamster
Procedure: Fresh HepG2 and CHO-K1 cells were seeded at the density of 1 × 10^5 cells/mL into 24-well plates (1 mL/per well). The compounds 13 (a–d) were then added to the medium to final concentrations of 500, 1000 and 2000 µM and incubation continued for 3 h or 24 h. DMSO 10% was used as the negative control, and, BaP (80 µM) for HepG2 and MMC (5 µM) for CHO-K1 were the positive controls. After exposure to the compounds, the cells were incubated for more than 24 h under growth conditions before quantification of the micronuclei and cytotoxicity. The cytogenetic studies were carried out in triplicate as described previously (see [51]). In order to determine the mitotic index and the number of cells with micronuclei, the medium was replaced by a cold methanol-glacial acetic acid (3:1) fixative for 30 min, and the cells then rinsed with distilled water for 2 min and air dried. The fixed cells were stained with 4,6-diamidino-2-phenylindole (DAPI) ([…]) dissolved in McIlvaine buffer (0.1 M citric acid plus 0.2 M Na2HPO4, pH 7.0) for 60 min, washed with McIlvaine buffer for 5 min, briefly rinsed with distilled water and mounted in glycerol. To determine the mitotic index and the number of cells with micronuclei, 1000 cells per well (3000 cells per concentration) were analyzed under a fluorescence microscope. The results for micronuclei were presented as the percentage of cells containing micronuclei in the 3000 cells/concentration group analyzed. Cells that glowed brightly and had homogenous nuclei were considered as having normal phenotypic morphology. Apoptotic nuclei were identified by the condensed chromatin at the periphery of the nuclear membrane or by fragmented nuclear body morphology. Necrotic cells presented chromatin forms with irregularly shaped aggregates, a pyknotic nucleus (shrunken and darkly stained) and cell membrane disruption, with cellular debris spilled into the extracellular milieu. Once again, 3000 cells were counted and the percentage of viable cells was evaluated, discounting apoptotic and necrotic cells. Statistical differences between the groups were analyzed by two-way ANOVA (p < 0.01) and Tukey’s post hoc test.

in vitro [1] = conditions: Salmonella enterica serovar Typhimurium, pH 7.4
[2] = tested on: Salmonella enterica serovar Typhimurium TA97; assay: Salmonella/microsome assay, TA97
Procedure: Salmonella enterica serovar Typhimurium (S. typhimurium) strains TA97, TA98, TA100, TA104 and TA102 from the authors’ stock were used as described in the mutagenicity assay.
To determine the cytotoxic effects, after 30 min pre-incubation, the assay mixtures were diluted in 0.9% NaCl (w/v) to obtain a suspension containing 2 × 10^2 cells/mL. […] The plates were then incubated at 37 °C for 24 h and the colonies counted. All the experiments were conducted in triplicate and were repeated at least twice. Statistical differences between the groups were analyzed by a two-way ANOVA (p < 0.05) and Tukey’s post hoc test.

[3] = tested on: intracellular forms of T. cruzi (Tulahuen strain transfected with β-galactosidase); assay: Activity against intracellular T. cruzi in L929 cells; type: cell-based, Trypanosoma cruzi; conditions: for EC50: intracellular forms, Tulahuen strain
Procedure: Tissue culture-derived trypomastigotes (Tulahuen strain expressing the E. coli β-galactosidase gene) were maintained in L929 cell lines and collected from the supernatant after 96 h of parasite infection, following previously established protocols. Briefly, after 24 h of L929 platting (4 × 10^3 cells/well), the cultures were incubated with trypomastigotes (10:1 parasite/host cell ratio) for 2 h at 37 °C. Then, the cell cultures were rinsed to remove non-internalized parasites and then further incubated for 24 h at 37 °C. Then the infected cultures were followed using two sequential protocols. […] After this period, 50 µL chlorophenol red glycoside (500 µM) in 0.5% Nonidet P40 was added to each well and the plate was incubated for more than 18 h at 37 °C, after which the absorbance was measured at 570 nm. […] Controls with untreated and Bz-treated cells are run in parallel. The results were expressed as the percent difference in the reduction between treated and untreated cells.

[4] = tested on: Salmonella enterica serovar Typhimurium TA100; assay: Salmonella/microsome assay, TA100
[5] = tested on: Salmonella enterica serovar Typhimurium TA102
in vitro [6] = type: cell-based; conditions: human
Procedure: Human hepatocellular carcinoma (HepG2) and Chinese Hamster Ovary (CHO-K1) cells obtained from the American Type Culture Collection (Manassas, VA, USA) were cultured in Eagle’s medium (MEM, Gibco®, Waltham, MA, USA) containing 10% fetal bovine serum (FBS) plus 100 µg/mL streptomycin and 100 µg/mL penicillin at 37 °C in a 5% CO2 atmosphere. Logarithmic-phase cells were used in all the experiments.
Fresh HepG2 and CHO-K1 cells were seeded at a density of 1 × 10^4/well. […] Briefly, after treatment, the culture medium was replaced by 90 μL fresh culture medium and 10 μL WST-1 reagent and incubated at 37 °C and 5% CO2 for 3 h. The absorbance was then measured at 440 nm according to the kit protocol.

in vitro [7] = type: cell-based; conditions: mouse
Procedure: Cardiac cell cultures were incubated for 24 h at 37 °C with different concentrations of the compounds (up to 200 µM) diluted in DMEM (without phenol red). Their morphology and spontaneous contractibility were evaluated by light microscopy and then the cellular viability was determined by the PrestoBlue® assay. For this colorimetric bioassay, PrestoBlue® (Invitrogen, Waltham, MA, USA) was added to each well (using a 10:1 medium/dye), the plate was further incubated for 24 h followed by optical density (OD) measurement performed at 570 and 600 nm, as recommended by the manufacturer.

[8] = Trypanosoma cruzi, TULAHUEN, L929, 96 h, 96 h

With CC(=O)Nc1ccccc1C(F)(F)C(=O)NCC[C@@H]1C[C@H](CC(=O)OC(C)(C)C)OC(C)(C)O1 [Compound 13a, tert-Butyl 2-((4R,6R)-6-(2-(2-(2-acetamidophenyl)-2,2-difluoroacetamido)ethyl)-2,2-dimethyl-1,3-dioxan-4-yl)acetate] the “micronuclei formation (genotoxicity)” value (CHO-K1 cells) was “genotoxic”, the CC50 (in vitro [1]) was 1480 ± 56.1 µM and the “revertant His+ colonies TA97” value ([2]; +S9, 3 µM) was 214 ± 21. For the same compound, the “revertant His+ colonies TA97” value ([2]; +S9, 15 µM) was 217 ± 9, the “revertant His+ colonies TA97” value ([2]; +S9, 30 µM) was 235 ± 23 and the “revertant His+ colonies TA97” value ([2]; +S9, 150 µM) was 237 ± 26. The “revertant His+ colonies TA97” value ([2]; +S9, 300 µM) was 237 ± 4, the “revertant His+ colonies TA97” value ([2]; +S9, 1500 µM) was 290 ± 28 and the “revertant His+ colonies TA97” value ([2]; −S9, 3 µM) was 78 ± 6. The “revertant His+ colonies TA97” value ([2]; −S9, 15 µM) was 82 ± 8, the “revertant His+ colonies TA97” value ([2]; −S9, 30 µM) was 79 ± 8 and the “revertant His+ colonies TA97” value ([2]; −S9, 150 µM) was 69 ± 10. For the same compound, the “revertant His+ colonies TA97” value ([2]; −S9, 300 µM) was 80 ± 11, the “revertant His+ colonies TA97” value ([2]; −S9, 1500 µM) was 90 ± 9 and the EC50 [3, 8] was no less than 50 µM. For the same compound, the “10µM (% of Parasite Lysis)” value ([3]; fixed concentration 10 µM, 96 h) was 17.92 ± 11.02%, the EC50 ([3]; 96 h) was greater than 50 µM and the “revertant His+ colonies TA100” value ([4]; +S9, 3 µM) was 211 ± 37. The “revertant His+ colonies TA100” value ([4]; +S9, 15 µM) was 223 ± 15, the “revertant His+ colonies TA100” value ([4]; +S9, 30 µM) was 241 ± 36 and the “revertant His+ colonies TA100” value ([4]; +S9, 150 µM) was 244 ± 14. For the same compound, the “revertant His+ colonies TA100” value ([4]; +S9, 300 µM) was 270 ± 45, the “revertant His+ colonies TA100” value ([4]; +S9, 1500 µM) was 290 ± 31 and the “revertant His+ colonies TA100” value ([4]; −S9, 3 µM) was 117 ± 43. The “revertant His+ colonies TA100” value ([4]; −S9, 15 µM) was 136 ± 13, the “revertant His+ colonies TA100” value ([4]; −S9, 30 µM) was 139 ± 13 and the “revertant His+ colonies TA100” value ([4]; −S9, 150 µM) was 142 ± 5. For the same compound, the “revertant His+ colonies TA100” value ([4]; −S9, 300 µM) was 162 ± 37, the “revertant His+ colonies TA100” value ([4]; −S9, 1500 µM) was 179 ± 34 and the “revertant His+ colonies TA102” value ([5]; +S9, 3 µM) was 384 ± 32. For the same compound, the “revertant His+ colonies TA102” value ([5]; +S9, 15 µM) was 399 ± 32, the “revertant His+ colonies TA102” value ([5]; +S9, 30 µM) was 407 ± 21 and the “revertant His+ colonies TA102” value ([5]; +S9, 150 µM) was 411 ± 46. For the same compound, the “revertant His+ colonies TA102” value ([5]; +S9, 300 µM) was 448 ± 52, the “revertant His+ colonies TA102” value ([5]; +S9, 1500 µM) was 501 ± 20 and the “revertant His+ colonies TA102” value ([5]; −S9, 3 µM) was 458 ± 19. For the same compound, the “revertant His+ colonies TA102” value ([5]; −S9, 15 µM) was 435 ± 22, the “revertant His+ colonies TA102” value ([5]; −S9, 30 µM) was 433 ± 7 and the “revertant His+ colonies TA102” value ([5]; −S9, 150 µM) was 380 ± 12. For the same compound, the “revertant His+ colonies TA102” value ([5]; −S9, 300 µM) was 345 ± 48, the “revertant His+ colonies TA102” value ([5]; −S9, 1500 µM) was “Cytotoxic” and the CC50 at 24 h (in vitro [6]) was greater than 1000 µM. It also gave a CC50 at 96 h (in vitro [7]) of 112 ± 28.3 µM.
With CC(=O)Nc1ccc(Cl)cc1C(F)(F)C(=O)NCC[C@@H]1C[C@H](CC(=O)OC(C)(C)C)OC(C)(C)O1 [Compound 13c, tert-Butyl 2-((4R,6R)-6-(2-(2-(2-acetamido-5-chlorophenyl)-2,2-difluoroacetamido)ethyl)-2,2-dimethyl-1,3-dioxan-4-yl)acetate] the mitotic index (CHO-K1 cells) was “did not affect the mitotic index”, the “revertant His+ colonies TA97” value ([2]; +S9, 3 µM) was 219 ± 16 and the “revertant His+ colonies TA97” value ([2]; +S9, 15 µM) was 245 ± 22. For the same compound, the “revertant His+ colonies TA97” value ([2]; +S9, 30 µM) was 247 ± 14, the “revertant His+ colonies TA97” value ([2]; +S9, 150 µM) was 249 ± 17 and the “revertant His+ colonies TA97” value ([2]; +S9, 300 µM) was 259 ± 1. The “revertant His+ colonies TA97” value ([2]; +S9, 1500 µM) was 261 ± 13, the “revertant His+ colonies TA97” value ([2]; −S9, 3 µM) was 81 ± 6 and the “revertant His+ colonies TA97” value ([2]; −S9, 15 µM) was 84 ± 8. The “revertant His+ colonies TA97” value ([2]; −S9, 30 µM) was 84 ± 6, the “revertant His+ colonies TA97” value ([2]; −S9, 150 µM) was 70 ± 6 and the “revertant His+ colonies TA97” value ([2]; −S9, 300 µM) was 71 ± 11. The “revertant His+ colonies TA97” value ([2]; −S9, 1500 µM) was 62 ± 9, the SI ([3]; LC50 (L929)/EC50 (intracellular forms)) was 16.7 and the EC50 [3, 8] was 9.24 ± 1.06 µM. The “revertant His+ colonies TA100” value ([4]; +S9, 3 µM) was 223 ± 39, the “revertant His+ colonies TA100” value ([4]; +S9, 15 µM) was 223 ± 47 and the “revertant His+ colonies TA100” value ([4]; +S9, 30 µM) was 228 ± 17. For the same compound, the “revertant His+ colonies TA100” value ([4]; +S9, 150 µM) was 278 ± 5, the “revertant His+ colonies TA100” value ([4]; +S9, 300 µM) was 286 ± 18 and the “revertant His+ colonies TA100” value ([4]; +S9, 1500 µM) was 300 ± 15. The “revertant His+ colonies TA100” value ([4]; −S9, 3 µM) was 135 ± 38, the “revertant His+ colonies TA100” value ([4]; −S9, 15 µM) was 135 ± 21 and the “revertant His+ colonies TA100” value ([4]; −S9, 30 µM) was 135 ± 30. For the same compound, the “revertant His+ colonies TA100” value ([4]; −S9, 150 µM) was 140 ± 31, the “revertant His+ colonies TA100” value ([4]; −S9, 300 µM) was 164 ± 17 and the “revertant His+ colonies TA100” value ([4]; −S9, 1500 µM) was 168 ± 15. The “revertant His+ colonies TA102” value ([5]; +S9, 3 µM) was 392 ± 8, the “revertant His+ colonies TA102” value ([5]; +S9, 15 µM) was 390 ± 12 and the “revertant His+ colonies TA102” value ([5]; +S9, 30 µM) was 402 ± 24. The “revertant His+ colonies TA102” value ([5]; +S9, 150 µM) was 401 ± 66, the “revertant His+ colonies TA102” value ([5]; +S9, 300 µM) was 403 ± 12 and the “revertant His+ colonies TA102” value ([5]; +S9, 1500 µM) was 430 ± 14. The “revertant His+ colonies TA102” value ([5]; −S9, 3 µM) was 373 ± 50, the “revertant His+ colonies TA102” value ([5]; −S9, 15 µM) was 386 ± 35 and the “revertant His+ colonies TA102” value ([5]; −S9, 30 µM) was 387 ± 33. The “revertant His+ colonies TA102” value ([5]; −S9, 150 µM) was 386 ± 5, the “revertant His+ colonies TA102” value ([5]; −S9, 300 µM) was 400 ± 24 and the “revertant His+ colonies TA102” value ([5]; −S9, 1500 µM) was 450 ± 32. For the same compound, the CC50 at 24 h (in vitro [6]) was greater than 1000 µM and the CC50 at 96 h (in vitro [7]) was 153 ± 25.2 µM.
